Experiments:
Assay type in all cases: cell-based, mouse
[1] = tested on: Hedgehog Signaling Pathway; assay: SAG-induced differentiation of C3H10T1/2 cells into osteoblastic cells, intracellular alkaline phosphatase activity; settings: 1 μM SAG, 5 days, alkaline phosphatase activity (OD405), read-out: IC50 values of compounds that inhibit Hh pathway
Outline: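 Mouse C3H10T1/2 cells were induced with SAG and exposed to compound (10 μM to 1 nM) for 5 days at 37 °C. Cells were lysed in 0.2% Triton, and alkaline phosphatase activity was read as OD405 over 30 min at 37 °C in pH 9.8 substrate buffer. IC50 came from a non-linear fit of background-subtracted OD405 against log concentration.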

[2] = tested on: Hedgehog Signaling Pathway; assay: Gli-Luc reporter gene cell assay in C3H10T1/2/Gli-Luc cells stimulated with Shh; settings: 30 nM Shh, luciferase activity (RLU), read-out: IC50 values of compounds that inhibit Hh pathway
Excerpt: The Application of Reporter Gene Cell Assay for the Determination of the Inhibitory Activity of N-(3-(1H-benzo[d]imidazol-2-yl)-4-chlorophenyl)-2-methyl-4-((2S,6R)-2,6-dimethylmorpholino) benzamide and Analogs on Hedgehog Signaling Pathway
The binding of Sonic hedgehog (Shh) to its receptor Patched 1 initiates numerous intracellular signal transmission, and leads to the nuclear translocation of Gli and the elevated transcription of Gli target genes. When C3H10T1/2 cells are stably transfected with the Gli-Luc plasmids containing the luciferase gene under the control of Gli response element and stimulated with Shh, the expression of luciferase is elevated. Luciferase activity is indicative of the hedgehog signaling pathway activity. Therefore, the inhibitory activity of compounds on hedgehog signaling pathway can be measured using the luciferase activity when the transfected cells are stimulated with Shh.
The day before experiment, C3H10T1/2/Gli-Luc cells in log phase of growth were seeded into 96 well plate at a density of 20000 cells per well. The cells were maintained in DMEM (Hyclone) supplemented with 10% FBS (Hyclone) and incubated at 37° C. with 5% CO2 overnight. The compounds to be examined were diluted into 7 different concentrations by series of dilutions (⅓ and 1/10), and the eighth point of concentration is the DMSO control. Those solutions were diluted 100-fold in the fresh growth medium. The cells were taken out of the incubator and the medium of cultured cells were removed. Then, each well was added in an orderly manner with 80 μL of fresh growth medium, 20 μL of medium pre-dilution of positive compound and compounds to be tested, as well as 100 μL of growth medium containing 30 nM of Shh. The cells are returned to the incubator, and incubated for 24 hours.
Measurement of luciferase activity: After taking the 96 well plate out of the incubator, the supernatants were discarded and the cells were washed twice with PBS. Thereafter, each well was dispensed with 20 μL of lysis buffer (Promega E1531), and the plate was shaken for 30 min at room temperature. Following transferring 5 μL of cell lysate into 384 well plate (Greiner 781074), adding 25 μL of luciferase reaction buffer (Promega E1501) into each well and mixing the plate, the relative light unit (RLU) was immediately captured by VarioSkan Flash.
The data were analyzed with Prism 5 software (GraphPad). The relative light unit (RLU) was plotted against the log concentration of testing compound, and the obtained plot was fitted with non-linear curve fitting equation to calculate IC50 values. The curve fitting equation is Y (RLU)=Bottom+(Top−Bottom)/(1+10^((X−Log IC50))). X is the logarithm of concentration. Y is the measure of relative light unit (RLU).
The calculated IC50 value is a measurement of the inhibitory activity of compound to Hh pathway.

[3] = tested on: Hedgehog Signaling Pathway; assay: SHH-induced differentiation of C3H10T1/2 cells into osteoblastic cells, intracellular alkaline phosphatase activity; settings: 10 nM SHH-N, 5 days, alkaline phosphatase activity (OD405), read-out: IC50 values of compounds that inhibit Hh pathway
Outline: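 Hedgehog pathway inhibition was taken as loss of SHH-driven osteoblastic differentiation. Test compound (10 nM–10 μM) plus SHH-N (10 nM) was applied to C3H10T1/2 cells for 5 days, then lysate phosphatase turnover was measured as the 30-min OD405 change at 37 °C. IC50 was fitted from activity versus log dose.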

[4] = Mus musculus, C3H 10T1/2, 120 h

| Structure (SMILES) | IC50 [1, 4] | IC50 ([2]; Mus musculus, C3H 10T1/2, 24 h) | IC50 [3, 4] | IC50 [1] | IC50 ([2]; 24 hours) | IC50 [3] |
| --- | --- | --- | --- | --- | --- | --- |
| CCN1[C@H](C)CN(c2ccc(C(=O)Nc3ccc(Cl)c(-c4nc5ccccc5[nH]4)c3)c(Cl)c2)C[C@@H]1C [Example 124, N-(3-(1H-benzo[d]imidazol-2-yl)-4-chlorophenyl)-2-chloro-4-((3S,5R)-4-ethyl-3,5-dimethylpiperazin-1-yl)benzamide] | 38 nM | 0.8 nM | 0.49 nM |  |  |  |
| Cc1cc(N2C[C@@H](C)N(C)[C@@H](C)C2)ccc1C(=O)Nc1ccc(Cl)c(-c2ncc(-c3nccs3)[nH]2)c1 [Example 154, N-(3-(5-(thiazol-2-yl)-1H-imidazol-2-yl)-4-chlorophenyl)-2-methyl-4-((3S,5R)-3,4,5-trimethylpiperazin-1-yl)benzamide] | 178 nM | 6.7 nM | 22 nM |  |  |  |
| C[C@H]1CN(c2ccc(C(=O)Nc3ccc(Cl)c(-c4nc5ccccc5[nH]4)c3)c(Cl)c2)CCN1C [Example 126, (S)—N-(3-(1H-benzo[d]imidazol-2-yl)-4-chlorophenyl)-2-chloro-4-(3,4-dimethylpiperazin-1-yl)benzamide] | 81 nM | 2.3 nM | 25 nM |  |  |  |
| Cc1cc(N2C[C@@H](C)N(C)[C@@H](C)C2)ccc1C(=O)Nc1cnc(Cl)c(-c2nc3ccccc3[nH]2)c1 [Example 87] |  |  |  | 21 nM | 0.53 nM | 1.7 nM |
| Cc1cc(-c2ccc(C(F)(F)F)cc2)ccc1C(=O)Nc1ccc(Cl)c(-c2ncc(-c3ccccc3)[nH]2)c1 [Example 50, N-(3-(5-phenyl-1H-imidazol-2-yl)-4-chlorophenyl)-3-methyl-4′-(trifluoromethyl)biphenyl-4-carboxamide] | 125 nM | 10 nM | 7.9 nM |  |  |  |
| Cc1cc(N2C[C@@H](C)N(C)[C@@H](C)C2)ccc1C(=O)Nc1ccc(Cl)c(-c2nc3ccc(F)cc3[nH]2)c1 [Example 98, N-(3-(6-fluoro-1H-benzo[d]imidazol-2-yl)-4-chlorophenyl)-2-methyl-4-((3S,5R)-3,4,5-trimethylpiperazin-1-yl)benzamide] | 24 nM | 0.96 nM | 1.4 nM |  |  |  |
| Cc1cc(N2C[C@@H](C)N[C@@H](C)C2)ccc1C(=O)Nc1ccc(Cl)c(-c2nc3ccccc3[nH]2)c1 [Example 109, N-(3-(1H-benzo[d]imidazol-2-yl)-4-chlorophenyl)-2-methyl-4-((3S,5R)-3,5-dimethylpiperazin-1-yl)benzamide] | 96 nM | 3.8 nM | 6.4 nM |  |  |  |
| Cc1cc(N2C[C@@H](C)O[C@@H](C)C2)ccc1C(=O)Nc1cnc(Cl)c(-c2nc3ccccc3[nH]2)c1 [Example 83, N-(5-(1H-benzo[d]imidazol-2-yl)-6-chloropyridin-3-yl)-2-methyl-4-((2S,6R)-2,6-dimethylmorpholino)benzamide] | 43 nM | 6.3 nM | 9.2 nM |  |  |  |
| Cc1cc(-c2ccc(C(F)(F)F)cc2)ccc1C(=O)Nc1ccc(Cl)c(-c2nc3cnccc3[nH]2)c1 [Example 49, N-(3-(1H-imidazo[4,5-c]pyridin-2-yl)-4-chlorophenyl)-3-methyl-4′-(trifluoromethyl)biphenyl-4-carboxamide] | 261 nM | 7.2 nM | 2.4 nM |  |  |  |
| C[C@@H]1CN(c2ccc(C(=O)Nc3ccc(Cl)c(-c4ncc(-c5cccs5)[nH]4)c3)c(Cl)c2)C[C@H](C)N1C [Example 82, N-(3-(5-(thiophen-2-yl)-1H-imidazol-2-yl)-4-chlorophenyl)-2-chloro-4-((3S,5R)-3,4,5-trimethylpiperazin-1-yl)benzamide] | 12 nM | 0.16 nM | 0.21 nM |  |  |  |
| Cc1cc(N2C[C@@H](C)N(C)[C@@H](C)C2)ccc1C(=O)Nc1ccc(Cl)c(-c2nc3ccncc3[nH]2)c1 [Example 197, N-(3-(3H-imidazo[4,5-c]pyridin-2-yl)-4-chlorophenyl)-2-methyl-4-((3S,5R)-3,4,5-trimethylpiperazin-1-yl)benzamide] | 306 nM | 9.5 nM | 115 nM |  |  |  |
